Measured values reported in PubChem BioAssay AID1919001 (Molecular Pharmacology Branch, DTP, NCI, 2023).
pIC50: −log10 of the molar value. “And” between values parts separate entries of the source, which are not always exact repeats. Equal values may be shown once.

Test system: 699152-130-R-J1-PDC complex spheroid growth
Test: Anticancer human tumor 699152-130-R-J1-PDC patient-derived pancreatic carcinoma cell line growth inhibition [AhR]
Conditions: for viability, T/C: stronger effect = lower value
Procedure, shortened: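 Spheroids combined tumor cells with HUVEC endothelial cells and human MSCs as stroma. AhR antagonists were paired with standard or investigational drugs, each dosed in half-log steps down from near clinical Cmax, or from 10 microM where Cmax was unknown.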

[1] = curve of first compound, second compound 0.1 µM
[2] = curve of first compound, second compound 0.316 µM
[3] = curve of first compound, second compound 1 µM
[4] = curve of first compound, second compound 3.16 µM
[5] = curve of first compound, second compound 10 µM
[6] = second compound 0.1 µM, first compound 0.0316 µM
[7] = second compound 0.1 µM, first compound 0.1 µM
[8] = second compound 0.1 µM, first compound 0.316 µM
[9] = second compound 0.1 µM, first compound 1 µM
[10] = second compound 0.1 µM, first compound 3.16 µM
[11] = second compound 0.1 µM, first compound 10 µM
[12] = second compound 0.316 µM, first compound 0.0316 µM
[13] = second compound 0.316 µM, first compound 0.1 µM
[14] = second compound 0.316 µM, first compound 0.316 µM
[15] = second compound 0.316 µM, first compound 1 µM
[16] = second compound 0.316 µM, first compound 3.16 µM
[17] = second compound 0.316 µM, first compound 10 µM
[18] = second compound 1 µM, first compound 0.0316 µM
[19] = second compound 1 µM, first compound 0.1 µM
[20] = second compound 1 µM, first compound 0.316 µM
[21] = second compound 1 µM, first compound 1 µM
[22] = second compound 1 µM, first compound 3.16 µM
[23] = second compound 1 µM, first compound 10 µM
[24] = second compound 3.16 µM, first compound 0.0316 µM
[25] = second compound 3.16 µM, first compound 0.1 µM
[26] = second compound 3.16 µM, first compound 0.316 µM
[27] = second compound 3.16 µM, first compound 1 µM
[28] = second compound 3.16 µM, first compound 3.16 µM
[29] = second compound 3.16 µM, first compound 10 µM
[30] = second compound 10 µM, first compound 0.0316 µM
[31] = second compound 10 µM, first compound 0.1 µM
[32] = second compound 10 µM, first compound 0.316 µM
[33] = second compound 10 µM, first compound 1 µM
[34] = second compound 10 µM, first compound 3.16 µM
[35] = second compound 10 µM, first compound 10 µM
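Note: compound exposure lasted 7 days after spheroids had grown for 3 days.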

| Structure (SMILES) | pIC50 [1] | pIC50 [2] | pIC50 [3] | pIC50 [4] | pIC50 [5] | viability, T/C [6] | viability, T/C [7] | viability, T/C [8] | viability, T/C [9] | viability, T/C [10] | viability, T/C [11] | viability, T/C [12] | viability, T/C [13] | viability, T/C [14] | viability, T/C [15] | viability, T/C [16] | viability, T/C [17] | viability, T/C [18] | viability, T/C [19] | viability, T/C [20] | further results |
| --- | --- | --- | --- | --- | --- | --- | --- | --- | --- | --- | --- | --- | --- | --- | --- | --- | --- | --- | --- | --- | --- |
| CC1COCCN1c1cc(-c2ccnn2C)c2ccnc(-c3ccn[nH]3)c2n1 (configuration not stated) | – | – | – | – | – | – | – | – | – | – | – | – | – | – | – | – | – | – | – | – | viability, T/C (compound 0.00316 µM): 106% and 92.5% and 103%; viability, T/C (compound 0.01 µM): 106% and 96.9% and 109%; viability, T/C (compound 0.0316 µM): 95.6% and 95.9% and 92.5%; viability, T/C (compound 0.1 µM): 85.9% and 90.6% and 95.9%; viability, T/C (compound 0.316 µM): 72.5% and 84.8% and 77.6%; viability, T/C (compound 1 µM): 59.9% and 58.5% and 61.5%; pIC50 (curve of compound): < 6.00 |
| CC(C)c1c(-c2ccccc2)nc2c(C#N)c[nH]n2c1=O + CC(CO)NC(=O)c1cc(-c2ccc(Cl)cc2)nn(-c2cnn(C)c2)c1=O | < 5.00 | < 5.00 | < 5.00 | < 5.00 | < 5.00 | 97% | 97.8% | 109% | 100% | 94.9% | 95.5% | 93.6% | 98.7% | 86.4% | 87.9% | 93.3% | 86.6% | 99.7% | 104% | 105% | viability, T/C [21]: 97.3%; viability, T/C [22]: 85.5%; viability, T/C [23]: 86.8%; viability, T/C [24]: 92.4%; viability, T/C [25]: 90.3%; viability, T/C [26]: 94.8%; viability, T/C [27]: 95.4%; viability, T/C [28]: 83.5%; viability, T/C [29]: 79.5%; viability, T/C [30]: 95.6%; viability, T/C [31]: 100%; viability, T/C [32]: 82.1%; viability, T/C [33]: 82.7%; viability, T/C [34]: 85%; viability, T/C [35]: 79.8% |
| CC1COCCN1c1cc(C2(S(C)(=N)=O)CC2)nc(-c2ccnc3[nH]ccc23)n1 (configuration not stated) + Cc1ccccc1N=Nc1ccc(NC(=O)c2ccnn2C)c(C)c1 | < 5.00 | < 5.00 | < 5.00 | < 5.00 | < 5.00 | 109% | 109% | 86.1% | 88.9% | 88.4% | 73.7% | 92% | 98% | 98.4% | 101% | 84.9% | 65.8% | 90.5% | 101% | 99.5% | viability, T/C [21]: 95.9%; viability, T/C [22]: 84.8%; viability, T/C [23]: 65.3%; viability, T/C [24]: 105%; viability, T/C [25]: 97%; viability, T/C [26]: 97.9%; viability, T/C [27]: 99%; viability, T/C [28]: 79.2%; viability, T/C [29]: 69.8%; viability, T/C [30]: 111%; viability, T/C [31]: 125%; viability, T/C [32]: 112%; viability, T/C [33]: 104%; viability, T/C [34]: 94.8%; viability, T/C [35]: 80.6% |
| COc1cc(C2c3cc4c(cc3C(OC3OC5COC(C)OC5C(O)C3O)C3COC(=O)C23)OCO4)cc(OC)c1O (configuration not stated) + CC(CO)NC(=O)c1cc(-c2ccc(Cl)cc2)nn(-c2cnn(C)c2)c1=O | 5.00 | 5.07 | < 5.00 | 5.18 | 5.11 | 101% | 98.3% | 87.8% | 69.4% | 61.9% | 48.6% | 93.7% | 93.7% | 74% | 61.2% | 54.8% | 47.5% | 95.1% | 92.3% | 82.2% | viability, T/C [21]: 73.3%; viability, T/C [22]: 53.2%; viability, T/C [23]: 53.9%; viability, T/C [24]: 82.4%; viability, T/C [25]: 86%; viability, T/C [26]: 69.5%; viability, T/C [27]: 65.5%; viability, T/C [28]: 59.1%; viability, T/C [29]: 45.5%; viability, T/C [30]: 77.6%; viability, T/C [31]: 82.9%; viability, T/C [32]: 79.7%; viability, T/C [33]: 57%; viability, T/C [34]: 57.1%; viability, T/C [35]: 43.3% |
| O=C(C=Cc1cccc(S(=O)(=O)Nc2ccccc2)c1)NO + Cc1cncc(-c2nc(NCCc3c[nH]c4ccccc34)c3ncn(C(C)C)c3n2)c1 | < 5.00 | < 5.00 | < 5.00 | < 5.00 | > 7.50 | 110% | 96.5% | 102% | 117% | 98.8% | 91.3% | 114% | 96% | 101% | 112% | 101% | 82.8% | 112% | 120% | 121% | viability, T/C [21]: 109%; viability, T/C [22]: 96.6%; viability, T/C [23]: 87.5%; viability, T/C [24]: 108%; viability, T/C [25]: 105%; viability, T/C [26]: 109%; viability, T/C [27]: 86.4%; viability, T/C [28]: 81.8%; viability, T/C [29]: 79%; viability, T/C [30]: 27.2%; viability, T/C [31]: 20.6%; viability, T/C [32]: 21.4%; viability, T/C [33]: 19.4%; viability, T/C [34]: 17%; viability, T/C [35]: 10.1% |
| CC1COCCN1c1cc(C2(S(C)(=N)=O)CC2)nc(-c2ccnc3[nH]ccc23)n1 (configuration not stated) + CC(CO)NC(=O)c1cc(-c2ccc(Cl)cc2)nn(-c2cnn(C)c2)c1=O | < 5.00 | < 5.00 | < 5.00 | < 5.00 | < 5.00 | 87.9% | 95.5% | 88.7% | 94.5% | 79.2% | 74.6% | 108% | 94.2% | 101% | 85.8% | 85.5% | 78.5% | 98.6% | 101% | 94.3% | viability, T/C [21]: 87.9%; viability, T/C [22]: 84%; viability, T/C [23]: 68%; viability, T/C [24]: 80.4%; viability, T/C [25]: 112%; viability, T/C [26]: 88.5%; viability, T/C [27]: 86.4%; viability, T/C [28]: 73.4%; viability, T/C [29]: 62.8%; viability, T/C [30]: 78.5%; viability, T/C [31]: 82.2%; viability, T/C [32]: 91.3%; viability, T/C [33]: 76.4%; viability, T/C [34]: 72.5%; viability, T/C [35]: 68.2% |
| O=C(c1cc(Cc2n[nH]c(=O)c3ccccc23)ccc1F)N1CCN(C(=O)C2CC2)CC1 + Cc1ccccc1N=Nc1ccc(NC(=O)c2ccnn2C)c(C)c1 | < 5.00 | < 5.00 | < 5.00 | < 5.00 | < 5.00 | 90.3% | 92.8% | 109% | 101% | 97.2% | 78.5% | 89.6% | 84.2% | 109% | 90% | 83.5% | 85.2% | 106% | 105% | 90.4% | viability, T/C [21]: 93.8%; viability, T/C [22]: 88.6%; viability, T/C [23]: 85.5%; viability, T/C [24]: 114%; viability, T/C [25]: 99.3%; viability, T/C [26]: 104%; viability, T/C [27]: 94.1%; viability, T/C [28]: 81.1%; viability, T/C [29]: 83.1%; viability, T/C [30]: 123%; viability, T/C [31]: 121%; viability, T/C [32]: 109%; viability, T/C [33]: 89.3%; viability, T/C [34]: 94%; viability, T/C [35]: 85.7% |
